In patent US20220000919A1, “PLACENTAL DERIVED NATURAL KILLER CELLS FOR TREATMENT OF CORONAVIRUS INFECTIONS” (Celularity Inc., priority 2020, published 2022):

What was measured:
CD34+ cells = test: NK culture of CD34+ cells with CRL compounds: cell expansion and NK differentiation; assay type: cell-based, human; details: for supported NK (PNK-007) expansion and differentiation: compound at 10 μM during the first 14 days of culture; for CD56+/CD11a+ subpopulation compared to SRI / expansion, differentiation and cytotoxicity profiles compared to SRI: PNK-007 culture, 10 μM; for cell expansion compared to SRI positive control at Day 35: compound and SRI at 10 μM; for CD34 cell expansion at Day 14 of the culture: compound at 10 μM
Method: Stage 1 medium: 90% Stem Cell Growth Medium (SCGM) (CellGro®), 10% Human Serum-AB, supplemented with 25 ng/mL or 250 ng/mL recombinant human thrombopoietin (TPO), 25 ng/mL recombinant human Flt3L, 27 ng/mL recombinant human stem cell factor (SCF), 25 ng/mL recombinant human IL-7, 0.05 ng/mL or 0.025 ng/mL recombinant human IL-6, 0.25 ng/mL or 0.125 ng/mL recombinant human granulocyte colony-stimulating factor (G-CSF), 0.01 ng/mL or 0.025 ng/mL recombinant human granulocyte-macrophage colony-stimulating factor (GM-CSF), 0.10% gentamicin, and 1 to 10 μm StemRegenin-1 (SR-1) or other stem cell mobilizing agent.
Stage 2 medium: 90% SCGM, 10% Human Serum-AB, supplemented with 25 ng/mL recombinant human Flt3L, 27 ng/mL recombinant human SCF, 25 ng/mL recombinant human IL-7, 20 ng/mL recombinant human IL-15, 0.05 ng/mL or 0.025 ng/mL recombinant human IL-6, 0.25 ng/mL or 0.125 ng/mL recombinant human granulocyte colony-stimulating factor (G-CSF), 0.01 ng/mL or 0.025 ng/mL recombinant human granulocyte-macrophage colony-stimulating factor (GM-CSF), 0.10% gentamicin, and 1 to 10 μm SRI or other stem cell mobilizing agent.
Stage 3 medium: 90% STEMMACS™, 10% Human Serum-AB, 0.025 mM 2-mercaptoethanol (55 mM), supplemented with 22 ng/mL recombinant human SCF, 1000 U/mL recombinant human IL-2, 20 ng/mL recombinant human IL-7, 20 ng/mL recombinant human IL-15, 0.05 ng/mL or 0.025 ng/mL recombinant human IL-6, 0.25 ng/mL or 0.125 ng/mL recombinant human granulocyte colony-stimulating factor (G-CSF), 0.01 ng/mL or 0.025 ng/mL recombinant human granulocyte-macrophage colony-stimulating factor (GM-CSF), and 0.10% gentamicin.
Cells are seeded at Day 0 at 3×10^4 cells/mL in Stage 1 media, and cells are tested for purity by a CD34+ and CD45+ count and viability by 7AAD staining. At Day 5 cells are counted and seeded to a concentration of 1×10^5 cells/mL with Stage 1 medium. At Day 7 cells are counted and seeded to a concentration of 1×10^5 cells/mL with Stage 1 medium.
At Day 10, cells are counted and seeded to a concentration of 1×10^5 cells/mL in Stage 2 medium. At Day 12, cells are counted and seeded to a concentration of 3×10^5 cells/mL in Stage 2 medium. At Day 14, cells are counted and seeded in Stage 3 medium. Cells are maintained in Stage 3 media until day 35.
UCB CD34+ cells were cultivated in presence of cytokines including thrombopoietin, SCF, Flt3 ligand, IL-7, IL-15 and IL-2 for 35 days to produce three-stage NK cells, as described in Example 1. Multi-color flow cytometry was used to determine the phenotypic characteristics of three-stage NK cells.
(§1) For biological testing, the compounds were provided to culture to evaluate their effects on NK cell expansion and differentiation. Specifically, donors of CD34+ cells (StemCell Technology) were thawed and expanded in vitro following NK culture protocol. During the first 14 days of the culture, each CRL compounds was dissolved in DMSO and added to the culture at 10 μM concentration. SRI (at 10 μM) served as a positive control compound, while DMSO alone without any compound served as a negative control. At the end of the culture on Day 35, cell expansion, natural killer (NK) cell differentiation and cytotoxicity of the cells against K562 tumor cell line were characterized. Due to the large number of the compounds, the testing was performed in two experiments, CRL1-11 and CRL 12-22. The same donors were used for each experiment. Positive and negative controls were also included in both experiments.

K562 tumor cells = test: Cytotoxicity assay of compound cultured cells against K562 tumor cells; assay type: cell-based; details: K562, 10:1 effector to target ratio
Method: as §1
Cytotoxicity assay was run using compound cultured cells against K562 tumor cells at 10:1 effector to target ratio (FIG. 5) to evaluate cell functions.

Row | Compound | supported NK (PNK-007) expansion and differentiation (CD34+ cells) | killing activities of cultured cells compared to those cultured with SRI (K562 tumor cells) | CD56+/CD11a+ subpopulation compared to SRI (CD34+ cells) | cell expansion compared to SRI positive control at Day 35 (CD34+ cells) | expansion, differentiation and cytotoxicity profiles compared to SRI (CD34+ cells) | CD34 cell expansion at Day 14 of the culture (CD34+ cells)
1 | CCC(C)Nc1cc(-c2cncc(C#N)c2)nc(NCCc2c[nH]c3ccccc23)n1 (centres unmarked) [CRL7, 5-(2-((2-(1H-indol-3-yl)ethyl)amino)-6-(sec-butylamino)pyrimidin-4-yl)nicotinonitrile] | all the compounds except CRL7 and CRL13 supported PNK-007 expansion and differentiation | – | – | – | – | –
2 | CCC(C)Nc1nc(NCCc2c[nH]c3ccccc23)c2ccccc2n1 (centres unmarked) [CRL13, N^4-(2-(1H-indol-3-yl)ethyl)-N^2-(sec-butyl)quinazoline-1,4-diamine] | all the compounds except CRL7 and CRL13 supported PNK-007 expansion and differentiation | – | – | – | – | –
3 | CC(C)c1csc2c(NCCc3c[nH]c4ccccc34)nc(-c3cncc(C#N)c3)nc12 [CRL17, 5-(4-((2-(1H-indol-3-yl)ethyl)amino)-7-isopropylthieno[3,2-d]pyrimidin-2-yl)nicotinonitrile] | – | increased killing activities of the cells | increased CD56+/CD11a+ subpopulation | slightly less expansion compared to SRI | – | –
4 | CC(C)c1csc2c(NCCc3c[nH]c4ccccc34)nc(-c3cncc(F)c3)nc12 [CRL18, N-(2-(1H-indol-3-yl)ethyl)-2-(5-fluoropyridin-3-yl)-7-isopropylthieno[3,2-d]pyrimidin-4-amine] | – | increased killing activities of the cells | increased CD56+/CD11a+ subpopulation | slightly less expansion compared to SRI | – | –
5 | Fc1cncc(-c2nc(NCCc3c[nH]c4ccccc34)c3occc3n2)c1 [CRL19, N-(2-(1H-indol-3-yl)ethyl)-2-(5-fluoropyridin-3-yl)furo[3,2-d]pyrimidin-4-amine] | – | – | – | – | very similar expansion, differentiation and cytotoxicity profiles as SRI | highest CD34 cell expansion
6 | Cc1cncc(-c2nc(NCCc3c[nH]c4ccccc34)c3occc3n2)c1 [CRL20, N-(2-(1H-indol-3-yl)ethyl)-2-(5-methylpyridin-3-yl)furo[3,2d]pyrimidin-4-amine] | – | – | – | – | very similar expansion, differentiation and cytotoxicity profiles as SRI | highest CD34 cell expansion
7 | Cc1cncc(-c2nc(NCCc3c[nH]c4ccccc34)c3scc(C(C)C)c3n2)c1 [CRL21, N-(2-(1H-indol-3-yl)ethyl)-7-isopropyl-2-(5-methylpyridin-3-yl)thieno[3,2-d]pyrimidin-4-amine] | – | increased killing activities of the cells | increased CD56+/CD11a+ subpopulation | slightly less expansion compared to SRI | – | –
8 | N#Cc1cncc(-c2nc(NCCc3c[nH]c4ccccc34)c3occc3n2)c1 [CRL22, 5-(4-((2-(1H-indol-3-yl)ethyl)amino)furo[3,2-d]pyrimidin-2-yl)nicotinonitrile] | – | – | – | – | very similar expansion, differentiation and cytotoxicity profiles as SRI | highest CD34 cell expansion
